Measurements: patent publication US11203600B2 (Denali Therapeutics Inc., priority 2017, dated 2021)

target: GST-hRIPK1 (8-327) (Homo sapiens (Human), UniProt Q13546); test: Fluorescent Polarization Binding (FP Binding) assay, RIPK1; details: GST-hRIPK1 (8-327), mean of at least two independent experiments
Outline: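 Compound displacement of 5 nM labelled ligand from 10 nM GST-hRIPK1 (8-327) was read as FP (531/595 nm) after 30 min at RT. Buffer: HEPES pH 7.5, NaCl, MgCl2, CHAPS, DTT, Pluronic; 1% DMSO final. IC50s were averaged over at least two independent runs.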

Chain of GST-hRIPK1 (8-327) (Q13546 8-327): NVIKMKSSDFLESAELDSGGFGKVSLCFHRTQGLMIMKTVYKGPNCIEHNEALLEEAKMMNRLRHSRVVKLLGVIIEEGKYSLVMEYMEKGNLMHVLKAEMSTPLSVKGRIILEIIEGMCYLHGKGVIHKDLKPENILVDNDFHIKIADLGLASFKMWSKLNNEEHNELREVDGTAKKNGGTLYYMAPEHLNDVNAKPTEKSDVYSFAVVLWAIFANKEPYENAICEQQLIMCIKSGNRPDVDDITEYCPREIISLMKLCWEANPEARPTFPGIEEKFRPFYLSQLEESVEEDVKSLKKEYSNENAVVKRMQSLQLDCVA

Compared with `CC(C)(C(=O)N1CCOc2c(C#N)cncc2C1)[C@H]1C[C@@H](Cn2nccn2)C1` [Example 291, cis-4-[2-methyl-2-[3-(triazol-2-ylmethyl)cyclobutyl]propanoyl]-3,5-dihydro-2H-pyrido[3,4-f][1,4]oxazepine-9-carbonitrile], `CC(C)(C(=O)N1CCOc2c(C#N)cncc2C1)[C@H]1C[C@H](Cn2ccnn2)C1` [Example 292, trans-4-[2-methyl-2-[3-(triazol-1-ylmethyl)cyclobutyl]propanoyl]-3,5-dihydro-2H-pyrido [3,4-f][1,4]oxazepine-9-carbonitrile] is higher in IC50: 100 to 1000 nM for the first, > 1000 nM for the second. The first is the more potent here.

Compared with `CC(C)(C(=O)N1CCOc2c(C#N)cncc2C1)[C@H]1C[C@@H](Cn2ccnn2)C1` [Example 293, cis-4-[2-methyl-2-[3-(triazol-1-ylmethyl)cyclobutyl]propanoyl]-3,5-dihydro-2H-pyrido [3,4-f][1,4]oxazepine-9-carbonitrile], `COC1CN(c2ncc(F)cn2)CCC1C(=O)N1CCOc2c(C#N)cncc2C1` (centres unmarked) [Example 309, 4-[1-(5-fluoropyrimidin-2-yl)-3-methoxy-piperidine-4-carbonyl]-3,5-dihydro-2H-pyrido[3,4-f][1,4]oxazepine-9-carbonitrile] is lower in IC50: > 1000 nM for the first, 100 to 1000 nM for the second. The second is the more potent here.

`N#Cc1cncc2c1OCCN(C(=O)C1(F)CCN(c3ncc(F)n4ncnc34)CC1)C2` [Example 294, 4-[4-fluoro-1-(5-fluoro-[1,2,4]triazolo[1,5-a]pyrazin-8-yl)piperidine-4-carbonyl]-3,5-dihydro-2H-pyrido [3,4-f][1,4]oxazepine-9-carbonitrile] gave an IC50 of 0.1 to 100 nM.
